Measured values as given in ChEMBL document CHEMBL1201862, “PubChem BioAssay data set” (2004).
Calls of active or inactive are those of the source.

What was measured:
[1] = target: T1, Streptokinase A (Streptococcus pyogenes serotype M1, UniProt P10520); assay: viability-normalized secreted streptokinase activity reduction – plasminogen activation absorbance, OD405, dose response (AID 1914); assay type: functional, Streptococcus pyogenes M1 GAS;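 further: secreted streptokinase activity via plasminogen activation per viability signal from cell pellet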
T1 sequence (P10520 whole entry): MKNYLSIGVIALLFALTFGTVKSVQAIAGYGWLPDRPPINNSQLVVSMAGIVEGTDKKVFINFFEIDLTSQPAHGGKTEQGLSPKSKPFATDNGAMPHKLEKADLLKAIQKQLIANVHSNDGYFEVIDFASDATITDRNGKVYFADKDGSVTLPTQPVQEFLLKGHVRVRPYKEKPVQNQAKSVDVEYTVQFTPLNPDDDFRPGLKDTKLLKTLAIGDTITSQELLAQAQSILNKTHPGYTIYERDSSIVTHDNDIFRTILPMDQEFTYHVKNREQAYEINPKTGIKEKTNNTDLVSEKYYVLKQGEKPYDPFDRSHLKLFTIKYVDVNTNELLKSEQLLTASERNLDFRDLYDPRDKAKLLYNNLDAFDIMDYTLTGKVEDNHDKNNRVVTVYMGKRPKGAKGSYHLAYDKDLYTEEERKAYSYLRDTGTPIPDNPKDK

[2] = tested on: BJ; assay: growth inhibition of engineered Ras-driven BJ cells – cell-based, alamar blue fluorescence, cherrypicked samples, dose response (AID 2631); assay type: functional; details: Homo sapiens;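 further: confirmatory dose-response assay in RAS-dependent BJ fibroblasts engineered with TERT, LT and ST, with cytotoxicity read by fluorescence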
[3] = tested on: Streptococcus; assay: GAS UMAA2166 growth inhibition – luminescence, BacTiterGlo, counter-screen for streptokinase expression inhibitor project, dose response (AID 1915); assay type: functional, organism-based;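 further: potency for reduction of bacterial viability or growth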
[4] = tested on: Streptococcus sp. 'group A'; assay: Streptococcus pyogenes SK(-)GAS viability under kanamycin – luminescence, BacTiterGlo, confirmation, counter-screen for streptokinase expression inhibitor project, dose response (AID 1900); assay type: functional, organism-based
[5] = target: T2, Fatty acid synthase (Homo sapiens, UniProt P49327); assay: inhibition of human FAS-TE enzyme activity – biochemical, endpoint fluorescence intensity, uHTS hits, dose response (AID 624327); assay type: functional;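 further: fluorescence from hydrolysis of an O-methyl fluorescein acyl ester substrate by the enzyme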
[6] = target: T2, Fatty acid synthase; assay: inhibition of human FAS-TE enzyme activity – biochemical, kinetic fluorescence intensity, dose response (AID 624326); assay type: functional;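 further: rate of fluorescence rise from hydrolysis of a fluorogenic O-methyl fluorescein ester substrate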
[7] = target: T3, Sentrin-specific protease 8 (Homo sapiens, UniProt Q96LD8); assay type: functional;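 further: luminescence read-out of SENP8 inhibition, dose-response confirmation following an ultra-high-throughput screen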
T3 sequence (Q96LD8 whole entry): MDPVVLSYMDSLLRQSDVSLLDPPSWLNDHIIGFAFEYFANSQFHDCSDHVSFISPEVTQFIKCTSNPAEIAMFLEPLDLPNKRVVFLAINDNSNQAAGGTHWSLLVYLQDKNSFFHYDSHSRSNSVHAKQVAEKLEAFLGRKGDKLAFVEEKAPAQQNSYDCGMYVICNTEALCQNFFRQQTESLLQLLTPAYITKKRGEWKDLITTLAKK

[8] = target: T4, Sentrin-specific protease 6 (Homo sapiens, UniProt Q9GZR1); assay type: functional;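 further: Luminescence-based dose-response confirmatory assay of SENP6 inhibition, following up an ultra-high-throughput screen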
T4 sequence (Q9GZR1 whole entry): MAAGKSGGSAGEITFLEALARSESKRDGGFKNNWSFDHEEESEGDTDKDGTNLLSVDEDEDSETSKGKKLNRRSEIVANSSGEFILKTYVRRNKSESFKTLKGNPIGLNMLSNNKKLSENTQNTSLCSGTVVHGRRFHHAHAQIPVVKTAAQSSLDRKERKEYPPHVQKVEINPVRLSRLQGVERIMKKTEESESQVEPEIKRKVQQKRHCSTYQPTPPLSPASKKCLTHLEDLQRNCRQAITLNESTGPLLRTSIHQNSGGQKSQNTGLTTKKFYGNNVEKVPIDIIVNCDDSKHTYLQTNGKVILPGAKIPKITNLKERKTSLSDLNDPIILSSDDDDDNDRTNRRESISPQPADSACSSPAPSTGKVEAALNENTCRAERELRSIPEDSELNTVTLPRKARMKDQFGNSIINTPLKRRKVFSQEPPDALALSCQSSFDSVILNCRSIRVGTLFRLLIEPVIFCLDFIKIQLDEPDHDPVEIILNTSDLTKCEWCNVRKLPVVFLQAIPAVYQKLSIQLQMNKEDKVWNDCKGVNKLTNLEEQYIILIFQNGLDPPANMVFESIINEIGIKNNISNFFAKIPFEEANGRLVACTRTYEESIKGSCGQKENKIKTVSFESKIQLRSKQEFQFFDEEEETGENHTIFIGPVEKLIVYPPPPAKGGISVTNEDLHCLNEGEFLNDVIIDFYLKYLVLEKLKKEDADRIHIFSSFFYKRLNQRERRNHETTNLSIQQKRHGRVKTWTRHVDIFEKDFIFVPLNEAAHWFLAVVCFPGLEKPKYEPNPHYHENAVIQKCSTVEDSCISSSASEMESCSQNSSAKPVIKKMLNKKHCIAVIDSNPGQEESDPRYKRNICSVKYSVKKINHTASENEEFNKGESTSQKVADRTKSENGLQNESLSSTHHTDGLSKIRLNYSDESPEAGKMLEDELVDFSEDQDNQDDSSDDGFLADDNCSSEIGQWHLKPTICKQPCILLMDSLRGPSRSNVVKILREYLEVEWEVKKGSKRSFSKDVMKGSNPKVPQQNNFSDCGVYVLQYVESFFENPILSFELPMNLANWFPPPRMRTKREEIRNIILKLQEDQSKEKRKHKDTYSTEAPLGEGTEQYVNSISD

[9] = target: T5, Caspase-3 (Homo sapiens, UniProt P42574); assay type: functional;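 further: Dose-response selectivity test against caspase-3 for candidate inhibitors of sentrin-specific proteases (SENPs)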
T5 sequence (P42574 whole entry): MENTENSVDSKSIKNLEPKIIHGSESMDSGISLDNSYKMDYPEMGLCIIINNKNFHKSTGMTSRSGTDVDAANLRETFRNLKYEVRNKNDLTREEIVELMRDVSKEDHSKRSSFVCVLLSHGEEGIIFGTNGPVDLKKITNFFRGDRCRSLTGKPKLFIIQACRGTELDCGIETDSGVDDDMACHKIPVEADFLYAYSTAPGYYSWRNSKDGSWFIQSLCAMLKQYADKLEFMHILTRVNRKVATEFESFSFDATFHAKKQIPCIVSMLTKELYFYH

[10] = target: T6, Sentrin-specific protease 7 (Homo sapiens, UniProt Q9BQF6); assay type: functional;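 further: Luminescence-based dose-response confirmation of ultra-high-throughput screening hits, measuring inhibition of SENP7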
T6 sequence (Q9BQF6 whole entry): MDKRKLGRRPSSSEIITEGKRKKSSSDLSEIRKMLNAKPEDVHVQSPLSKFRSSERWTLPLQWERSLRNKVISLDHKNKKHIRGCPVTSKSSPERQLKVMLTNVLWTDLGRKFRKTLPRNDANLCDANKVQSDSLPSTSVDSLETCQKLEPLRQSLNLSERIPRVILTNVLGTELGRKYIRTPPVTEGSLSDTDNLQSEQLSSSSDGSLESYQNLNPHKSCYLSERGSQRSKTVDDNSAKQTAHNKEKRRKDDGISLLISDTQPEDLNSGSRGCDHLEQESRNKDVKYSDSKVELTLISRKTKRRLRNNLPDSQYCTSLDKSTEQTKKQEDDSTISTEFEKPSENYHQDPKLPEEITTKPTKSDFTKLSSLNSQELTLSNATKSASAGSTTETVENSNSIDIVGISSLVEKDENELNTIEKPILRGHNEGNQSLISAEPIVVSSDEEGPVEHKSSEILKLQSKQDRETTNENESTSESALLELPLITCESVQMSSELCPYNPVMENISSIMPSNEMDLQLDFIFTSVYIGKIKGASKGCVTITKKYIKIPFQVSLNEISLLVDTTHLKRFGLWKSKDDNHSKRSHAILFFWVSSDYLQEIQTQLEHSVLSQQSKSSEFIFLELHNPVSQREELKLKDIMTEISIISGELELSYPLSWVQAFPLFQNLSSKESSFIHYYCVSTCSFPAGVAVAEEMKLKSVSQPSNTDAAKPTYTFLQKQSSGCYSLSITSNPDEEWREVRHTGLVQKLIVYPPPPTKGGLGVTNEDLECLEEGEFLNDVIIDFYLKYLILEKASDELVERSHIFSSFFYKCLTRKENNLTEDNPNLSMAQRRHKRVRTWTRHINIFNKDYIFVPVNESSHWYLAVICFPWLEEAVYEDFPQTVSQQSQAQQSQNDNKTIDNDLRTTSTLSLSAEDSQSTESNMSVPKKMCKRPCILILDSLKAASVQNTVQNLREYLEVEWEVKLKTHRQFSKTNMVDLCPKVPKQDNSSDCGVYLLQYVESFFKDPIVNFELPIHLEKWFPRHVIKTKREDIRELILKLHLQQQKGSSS

[11] = target: Prothrombin (Homo sapiens, UniProt P00734); assay: Thrombin 1536 HTS Dose Response Confirmation. [Related pubchem assays: 1046 (Thrombin 1536 HTS; hits were confirmed in this assay)]; assay type: functional
[12] = tested on: BJ; assay: cells; assay type: functional, cell-based; details: Homo sapiens
[13] = DRD fibroblast viability loss – cell-based, non-viral oncogenic, luminescence, dose response (AID 1934); assay type: functional; details: Homo sapiens
[14] = tested on: BJ; assay: BJ-TERT fibroblast viability loss – cell-based, RAS-independent, luminescence, dose response (AID 1933); assay type: functional; details: Homo sapiens
[15] = tested on: BJ; assay: BJ-TERT-LT-ST fibroblast viability loss – cell-based, RAS-independent, luminescence, dose response (AID 1935); assay type: functional; details: Homo sapiens;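 further: BJ fibroblasts immortalized with TERT plus LT and ST oncogenes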
[16] = target: T7, Caspase-6 (Homo sapiens, UniProt P55212); assay: inhibition of CASP6 peptide cleavage – biochemical, VEID-R110 fluorescence, cherry-pick, dose response (AID 720632)
T7 sequence (P55212 whole entry): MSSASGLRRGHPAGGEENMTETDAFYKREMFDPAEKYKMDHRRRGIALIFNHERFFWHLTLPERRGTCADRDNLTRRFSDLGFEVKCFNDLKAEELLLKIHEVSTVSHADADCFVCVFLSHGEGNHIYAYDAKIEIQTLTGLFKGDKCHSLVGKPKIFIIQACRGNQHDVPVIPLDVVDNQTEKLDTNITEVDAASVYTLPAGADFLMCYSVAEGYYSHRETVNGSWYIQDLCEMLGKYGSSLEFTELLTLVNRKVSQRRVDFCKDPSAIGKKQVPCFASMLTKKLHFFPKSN

T2 sequence (P49327 whole entry): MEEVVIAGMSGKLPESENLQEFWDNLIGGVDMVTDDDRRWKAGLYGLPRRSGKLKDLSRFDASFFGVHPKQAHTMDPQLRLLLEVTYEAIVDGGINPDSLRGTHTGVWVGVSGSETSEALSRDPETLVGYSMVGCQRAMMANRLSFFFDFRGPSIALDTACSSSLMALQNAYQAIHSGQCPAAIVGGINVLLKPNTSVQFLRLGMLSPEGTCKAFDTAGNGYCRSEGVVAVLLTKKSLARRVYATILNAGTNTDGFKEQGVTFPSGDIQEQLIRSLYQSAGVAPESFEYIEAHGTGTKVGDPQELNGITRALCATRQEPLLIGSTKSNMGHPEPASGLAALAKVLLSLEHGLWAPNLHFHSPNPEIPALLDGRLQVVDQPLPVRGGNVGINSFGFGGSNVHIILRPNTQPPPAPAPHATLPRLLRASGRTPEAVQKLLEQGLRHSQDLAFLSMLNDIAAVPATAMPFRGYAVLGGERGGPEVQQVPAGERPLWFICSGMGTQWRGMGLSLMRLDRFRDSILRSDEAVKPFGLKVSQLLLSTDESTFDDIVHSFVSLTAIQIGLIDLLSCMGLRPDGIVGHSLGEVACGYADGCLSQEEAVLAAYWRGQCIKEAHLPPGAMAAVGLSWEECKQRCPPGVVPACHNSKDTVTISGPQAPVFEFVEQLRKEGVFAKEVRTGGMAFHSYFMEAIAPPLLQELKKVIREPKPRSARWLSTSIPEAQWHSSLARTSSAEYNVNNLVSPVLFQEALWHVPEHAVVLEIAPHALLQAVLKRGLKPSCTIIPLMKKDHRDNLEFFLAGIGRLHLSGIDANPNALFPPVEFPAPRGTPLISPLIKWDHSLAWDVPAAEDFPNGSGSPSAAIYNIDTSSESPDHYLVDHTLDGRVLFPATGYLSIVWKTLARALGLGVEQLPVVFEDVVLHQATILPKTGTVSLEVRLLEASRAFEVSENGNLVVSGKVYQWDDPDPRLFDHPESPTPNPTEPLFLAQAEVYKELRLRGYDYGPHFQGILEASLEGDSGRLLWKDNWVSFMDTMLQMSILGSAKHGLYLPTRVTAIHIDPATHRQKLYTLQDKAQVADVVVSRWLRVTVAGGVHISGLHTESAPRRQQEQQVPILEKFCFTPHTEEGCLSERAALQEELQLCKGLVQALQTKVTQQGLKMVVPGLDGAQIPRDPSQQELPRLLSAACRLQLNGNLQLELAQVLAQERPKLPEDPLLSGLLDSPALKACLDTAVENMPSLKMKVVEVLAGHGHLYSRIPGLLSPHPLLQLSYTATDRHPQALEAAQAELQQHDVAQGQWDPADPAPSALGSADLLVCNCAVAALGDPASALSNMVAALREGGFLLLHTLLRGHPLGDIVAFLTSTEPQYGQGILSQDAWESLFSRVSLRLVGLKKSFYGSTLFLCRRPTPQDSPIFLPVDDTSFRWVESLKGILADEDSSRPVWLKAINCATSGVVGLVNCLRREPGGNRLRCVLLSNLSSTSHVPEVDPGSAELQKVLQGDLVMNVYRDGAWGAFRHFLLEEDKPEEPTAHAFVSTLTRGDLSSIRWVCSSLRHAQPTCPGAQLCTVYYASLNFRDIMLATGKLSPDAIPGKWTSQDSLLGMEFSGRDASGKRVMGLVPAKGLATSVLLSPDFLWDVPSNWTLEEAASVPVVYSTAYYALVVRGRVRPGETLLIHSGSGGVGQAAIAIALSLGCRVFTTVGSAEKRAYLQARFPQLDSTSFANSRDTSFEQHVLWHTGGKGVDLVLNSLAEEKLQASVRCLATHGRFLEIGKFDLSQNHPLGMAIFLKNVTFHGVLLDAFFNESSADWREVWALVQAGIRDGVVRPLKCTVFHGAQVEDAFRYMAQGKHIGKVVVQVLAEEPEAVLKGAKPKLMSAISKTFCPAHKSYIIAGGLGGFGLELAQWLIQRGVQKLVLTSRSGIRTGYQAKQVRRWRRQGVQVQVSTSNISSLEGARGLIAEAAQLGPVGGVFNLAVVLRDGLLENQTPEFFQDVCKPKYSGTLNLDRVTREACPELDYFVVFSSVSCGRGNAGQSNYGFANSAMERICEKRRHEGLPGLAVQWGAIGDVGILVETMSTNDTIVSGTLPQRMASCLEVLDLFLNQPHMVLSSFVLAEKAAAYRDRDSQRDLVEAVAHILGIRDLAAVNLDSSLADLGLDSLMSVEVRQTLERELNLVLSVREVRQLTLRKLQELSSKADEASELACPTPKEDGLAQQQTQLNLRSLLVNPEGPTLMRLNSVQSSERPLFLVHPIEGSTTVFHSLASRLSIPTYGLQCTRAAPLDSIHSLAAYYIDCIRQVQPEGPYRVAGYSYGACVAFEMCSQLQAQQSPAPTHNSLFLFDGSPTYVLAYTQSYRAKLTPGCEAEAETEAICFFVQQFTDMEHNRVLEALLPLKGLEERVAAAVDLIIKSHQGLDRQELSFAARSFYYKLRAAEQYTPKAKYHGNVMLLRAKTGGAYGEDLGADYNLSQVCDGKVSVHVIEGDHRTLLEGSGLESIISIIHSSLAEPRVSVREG

## O=C(c1ccc2c3n(nc2c1)-c1ccccc1CO3)N1CCCCC1
[1]
  EC50: > 150 µM (not active)
[2]
  EC50: > 133 µM (inactive)
[3]
  EC50: 30.6 µM (active)
[4]
  EC50: 11.9 µM (active)

## Cc1ccc([N+](=O)[O-])cc1S(=O)(=O)Nc1ccc(-c2ccc(N3CCCC3)nn2)cc1
[5]
  IC50: 13.7 µM (active)
[6]
  IC50: 8.02 µM (active)

## CCOC(=O)c1c(NC(=O)CSc2nnc(-c3ccccc3C)n2C)sc(C(C)=O)c1C
[5]
  IC50: 9.71 µM (active)
[6]
  IC50: 3.03 µM (active)

## CCOC(=O)c1ccc(-c2ccc3c(c2)CCC3)nc1C
[7]
  IC50: 45.2 µM (active)
[8]
  IC50: 26.3 µM (active)
[9]
  IC50: 22.8 µM (active)
[10]
  IC50: 6.3 µM (active)

## CCC(=O)n1nc(-c2ccco2)nc1SCc1ccccc1
[11]
  IC50: 0.00342 µM (active)

## COc1ccccc1NC(=O)CCS(=O)(=O)c1ccccc1
[11]
  IC50: > 50 µM (not active)

## O=C(CCCCCCCCCCC(=O)NCc1cccnc1)NCc1cccnc1
[12]
  EC50: 1.85 µM (inconclusive)
[2]
  EC50: > 133 µM (inactive)
[13]
  EC50: > 150 µM (not active)
[14]
  EC50: > 75 µM (not active)
[15]
  EC50: > 150 µM (inconclusive)

## CC(Sc1nnc(-c2cc3ccccc3o2)n1-c1ccccc1)C(=O)O (stereo not drawn)
[11]
  IC50: > 50 µM (not active)

## O=C(Nc1nnc(C(F)(F)F)s1)c1ccc(Br)s1
[7]
  IC50: 24.1 µM (active)
[8]
  IC50: 22.6 µM (active)
[9]
  IC50: 18.8 µM (active)
[10]
  IC50: 15.5 µM (active)

## COc1cc(CNc2nc(C)c([N+](=O)[O-])c(C)c2C#N)cc(OC)c1OC
[5]
  IC50: 61.3 µM (inactive)
[6]
  IC50: 80 µM (inactive)

## CC1CCc2c(sc3nc(CN4CCN(S(=O)(=O)c5ccccc5[N+](=O)[O-])CC4)nc(O)c23)C1 (stereo not drawn)
[5]
  IC50: 4.32 µM (active)
[6]
  IC50: 4.55 µM (active)

## O=C(NNC(=O)C(c1ccccc1)c1ccccc1)c1cccs1
[11]
  IC50: > 50 µM (not active)

## CCC12CCCN3CCc4c(n(c5ccccc45)C(O)(C(=O)OC)C1)C32 (stereo not drawn)
[16]
  AC50: 21.7 µM (active)

## Cc1ccc(C(=O)Nc2ccc3c(c2)OCO3)cc1Cl
[7]
  IC50: > 100 µM (inactive)
[8]
  IC50: > 100 µM (inactive)
[9]
  IC50: 13.4 µM (active)
[10]
  IC50: 5.94 µM (active)

## CC(C)(C)NC(=O)NC(=O)COC(=O)C1CCN(S(=O)(=O)c2cccs2)CC1
[5]
  IC50: 12.8 µM (active)
[6]
  IC50: 9.75 µM (active)

## CCOc1ccc(/C=C2\CCc3ccccc3C2=O)cc1
[7]
  IC50: 1.88 µM (active)
[8]
  IC50: 1.42 µM (active)
[9]
  IC50: 1.5 µM (active)
[10]
  IC50: 1.22 µM (active)

## Cc1ccccc1CN1[C@@H](C)[C@H](c2ccccc2)Oc2cccc(NCC(C)C)c2S1(=O)=O
[16]
  AC50: 23.3 µM (active)

## Cc1ccccc1S(=O)(=O)N1[C@@H]2CNC[C@H]1[C@@H]2c1ccc(-c2ccc(C#N)cc2)cc1
[16]
  AC50: 30.9 µM (active)

## O=C(CCC(=O)Nc1ccc(F)cc1)N/N=C/c1cc([N+](=O)[O-])ccc1O
[5]
  IC50: 22.6 µM (inactive)
[6]
  IC50: 15.1 µM (active)

## CC(C)Oc1ccc2c(=O)c(-c3ccccc3)coc2c1 [IPRIFLAVONE]
[7]
  IC50: 94.8 µM (active)
[8]
  IC50: 57.2 µM (active)
[9]
  IC50: 19.7 µM (active)
[10]
  IC50: 5.35 µM (active)
